Laboratory results reported in patent publication US20240391862A1, “(1,4,5-TRISUBSTITUTED-1H-PYRAZOL-3-YL)OXY-2-ALKOXY ALKYL ACIDS AND THEIR DERIVATIVES, THEIR SALTS AND THEIR USE AS HERBICIDAL AGENTS” (Bayer AKtiengesellschaft, priority 2021, published 2024).

Experiments:
Assay in all cases: Post-emergence herbicidal effect, greenhouse pot test
ABUTH = format: in vivo, Abutilon theophrasti; conditions: visual rating about 3 weeks after treatment
Summary of the method: (§1)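 Greenhouse pot plants in sandy loam receive a one-leaf-stage spray at 20 to 320 g/ha. Activity is assessed visually around 3 weeks afterwards on a 0–100% scale, where 100% means the plants have died.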

ALOMY = format: in vivo, Alopecurus myosuroides; conditions: visual rating about 3 weeks after treatment
Summary of the method: as §1

AMARE = format: in vivo, Amaranthus retroflexus; conditions: visual rating about 3 weeks after treatment
Summary of the method: as §1

AVEFA = format: in vivo, Avena fatua; conditions: visual rating about 3 weeks after treatment
Summary of the method: as §1

DIGSA = format: in vivo, Digitaria sanguinalis; conditions: visual rating about 3 weeks after treatment
Summary of the method: as §1

ECHCG = format: in vivo, Echinochloa crus-galli
Summary of the method: as §1

LOLRI = format: in vivo, Lolium rigidum
Summary of the method: as §1

MATIN = format: in vivo, Tripleurospermum inodorum
Summary of the method: as §1

PHBPU = format: in vivo, Ipomoea purpurea
Summary of the method: as §1

POLCO = format: in vivo, Fallopia convolvulus
Summary of the method: as §1

SETVI = format: in vivo, Setaria viridis
Summary of the method: as §1

VERPE = format: in vivo, Veronica persica
Summary of the method: as §1

VIOTR = format: in vivo, Viola tricolor
Summary of the method: as §1

KCHSC = format: in vivo
Summary of the method: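 Greenhouse plants in sandy loam, sprayed post-emergence at the one-leaf stage (2–3 weeks after sowing) with WP or EC formulations in water plus 0.5% additive at 600 l/ha. Rates 20 to 320 g/ha. Activity rated visually after about 3 weeks against untreated controls (0% like control, 100% dead).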

[1] = 20 g/ha, visual rating about 3 weeks after treatment
[2] = Amaranthus retroflexus, 504 h, 80 g/ha, read-out: Post-emergence effect against AMARE
[3] = Lolium rigidum, 504 h, 80 g/ha, read-out: Post-emergence effect against LOLRI in %
[4] = Ipomoea purpurea, 504 h, 20 g/ha, read-out: Post-emergence effect against PHBPU in %
[5] = Setaria viridis, 504 h, 20 g/ha, read-out: Post-emergence effect against SETVI in %
[6] = 504 h, read-out: Post-emergence effect against KCHSC in %

COC(=O)CCOC(=O)C(OC)Oc1nn(-c2cc(F)ccc2F)c(-c2cncc(F)c2)c1C1CC1 (single isomer, unassigned) [Example I-79]
80%: Post-emergence effect against ABUTH (ABUTH; 20 g/ha) | Post-emergence effect against ABUTH (ABUTH; 80 g/ha) | Post-emergence effect against ALOMY (ALOMY; 80 g/ha) | Post-emergence effect against AMARE (AMARE; 20 g/ha) | Post-emergence effect against AMARE (AMARE; 80 g/ha) | Post-emergence effect against AMARE (AMARE; 320 g/ha) | Post-emergence effect against DIGSA (DIGSA; 320 g/ha) | Post-emergence effect against ECHCG (ECHCG; [1]) | Post-emergence effect against MATIN in % (MATIN; 80 g/ha) | Post-emergence effect against MATIN in % (MATIN; 320 g/ha) | Post-emergence effect against KCHSC in % (KCHSC; 320 g/ha)
90%: Post-emergence effect against ABUTH (ABUTH; 320 g/ha) | Post-emergence effect against ALOMY (ALOMY; 320 g/ha) | Post-emergence effect against AVEFA (AVEFA; 80 g/ha) | Post-emergence effect against AVEFA (AVEFA; 320 g/ha) | Post-emergence effect against ECHCG in % (ECHCG; 80 g/ha) | Post-emergence effect against ECHCG in % (ECHCG; 320 g/ha) | Post-emergence effect against LOLRI in % (LOLRI; 80 g/ha) | Post-emergence effect against LOLRI in % (LOLRI; 320 g/ha) | Post-emergence effect against PHBPU in % (PHBPU; 20 g/ha) | Post-emergence effect against PHBPU in % (PHBPU; 80 g/ha) | Post-emergence effect against PHBPU in % (PHBPU; 320 g/ha) | Post-emergence effect against POLCO in % (POLCO; 80 g/ha) | Post-emergence effect against POLCO in % (POLCO; 320 g/ha) | Post-emergence effect against SETVI in % (SETVI; 20 g/ha) | Post-emergence effect against SETVI in % (SETVI; 80 g/ha) | Post-emergence effect against SETVI in % (SETVI; 320 g/ha) | Post-emergence effect against VERPE in % (VERPE; 20 g/ha) | Post-emergence effect against VERPE in % (VERPE; 80 g/ha) | Post-emergence effect against VERPE in % (VERPE; 320 g/ha) | Post-emergence effect against VIOTR in % (VIOTR; 20 g/ha) | Post-emergence effect against VIOTR in % (VIOTR; 80 g/ha) | Post-emergence effect against VIOTR in % (VIOTR; 320 g/ha)

CCOC(=O)C(OC)Oc1nn(-c2ncccc2F)c(-c2cncc(F)c2)c1C1CC1 (stereo not shown) [Example I-113]
80%: pest or weed control at 20 g/ha (AMARE; Amaranthus retroflexus, 504 h, 20 g/ha, read-out: Post-emergence effect against AMARE) | pest or weed control at 80 g/ha (AMARE; [2]) | pest or weed control at 320 g/ha (AMARE; Amaranthus retroflexus, 504 h, 320 g/ha, read-out: Post-emergence effect against AMARE) | pest or weed control at 20 g/ha (AVEFA; Avena fatua, 504 h, 20 g/ha, read-out: Post-emergence effect against AVEFA) | pest or weed control at 80 g/ha (MATIN; Tripleurospermum inodorum, 504 h, 80 g/ha, read-out: Post-emergence effect against MATIN in %) | pest or weed control at 320 g/ha (MATIN; Tripleurospermum inodorum, 504 h, 320 g/ha, read-out: Post-emergence effect against MATIN in %) | pest or weed control at 80 g/ha (POLCO; Fallopia convolvulus, 504 h, 80 g/ha, read-out: Post-emergence effect against POLCO in %) | pest or weed control at 320 g/ha (POLCO; Fallopia convolvulus, 504 h, 320 g/ha, read-out: Post-emergence effect against POLCO in %) | pest or weed control at 20 g/ha (VERPE; Veronica persica, 504 h, 20 g/ha, read-out: Post-emergence effect against VERPE in %)
90%: pest or weed control at 20 g/ha (ABUTH; Abutilon theophrasti, 504 h, 20 g/ha, read-out: Post-emergence effect against ABUTH) | pest or weed control at 80 g/ha (ABUTH; Abutilon theophrasti, 504 h, 80 g/ha, read-out: Post-emergence effect against ABUTH) | pest or weed control at 320 g/ha (ABUTH; Abutilon theophrasti, 504 h, 320 g/ha, read-out: Post-emergence effect against ABUTH) | pest or weed control at 320 g/ha (DIGSA; Digitaria sanguinalis, 504 h, 320 g/ha, read-out: Post-emergence effect against DIGSA) | pest or weed control at 20 g/ha (ECHCG; Echinochloa crus-galli, 504 h, 20 g/ha, visual rating about 3 weeks after treatment, read-out: Post-emergence effect against ECHCG) | pest or weed control at 80 g/ha (ECHCG; Echinochloa crus-galli, 504 h, 80 g/ha, read-out: Post-emergence effect against ECHCG in %) | pest or weed control at 320 g/ha (ECHCG; Echinochloa crus-galli, 504 h, 320 g/ha, read-out: Post-emergence effect against ECHCG in %) | pest or weed control at 80 g/ha (LOLRI; [3]) | pest or weed control at 20 g/ha (PHBPU; [4]) | pest or weed control at 80 g/ha (PHBPU; Ipomoea purpurea, 504 h, 80 g/ha, read-out: Post-emergence effect against PHBPU in %) | pest or weed control at 20 g/ha (SETVI; [5]) | pest or weed control at 80 g/ha (SETVI; Setaria viridis, 504 h, 80 g/ha, read-out: Post-emergence effect against SETVI in %) | pest or weed control at 320 g/ha (SETVI; Setaria viridis, 504 h, 320 g/ha, read-out: Post-emergence effect against SETVI in %) | pest or weed control at 80 g/ha (VERPE; Veronica persica, 504 h, 80 g/ha, read-out: Post-emergence effect against VERPE in %) | pest or weed control at 320 g/ha (VERPE; Veronica persica, 504 h, 320 g/ha, read-out: Post-emergence effect against VERPE in %) | pest or weed control at 20 g/ha (VIOTR; Viola tricolor, 504 h, 20 g/ha, read-out: Post-emergence effect against VIOTR in %) | pest or weed control at 80 g/ha (VIOTR; Viola tricolor, 504 h, 80 g/ha, read-out: Post-emergence effect against VIOTR in %) | pest or weed control at 320 g/ha (VIOTR; Viola tricolor, 504 h, 320 g/ha, read-out: Post-emergence effect against VIOTR in %) | pest or weed control at 20 g/ha (KCHSC; [6]) | pest or weed control at 80 g/ha (KCHSC; 504 h, 80 g/ha, read-out: Post-emergence effect against KCHSC in %) | pest or weed control at 320 g/ha (KCHSC; 504 h, 320 g/ha, read-out: Post-emergence effect against KCHSC in %)
100%: pest or weed control at 80 g/ha (ALOMY; Alopecurus myosuroides, 504 h, 80 g/ha, read-out: Post-emergence effect against ALOMY) | pest or weed control at 320 g/ha (ALOMY; Alopecurus myosuroides, 504 h, 320 g/ha, read-out: Post-emergence effect against ALOMY) | pest or weed control at 80 g/ha (AVEFA; Avena fatua, 504 h, 80 g/ha, read-out: Post-emergence effect against AVEFA) | pest or weed control at 320 g/ha (AVEFA; Avena fatua, 504 h, 320 g/ha, read-out: Post-emergence effect against AVEFA) | pest or weed control at 320 g/ha (LOLRI; Lolium rigidum, 504 h, 320 g/ha, read-out: Post-emergence effect against LOLRI in %) | pest or weed control at 320 g/ha (PHBPU; Ipomoea purpurea, 504 h, 320 g/ha, read-out: Post-emergence effect against PHBPU in %)

COC(Oc1nn(-c2ncccc2F)c(-c2cncc(F)c2)c1C1CC1)C(=O)O (stereo not shown) [Example I-84]
90%: Post-emergence effect against ALOMY (ALOMY; 320 g/ha) | Post-emergence effect against AVEFA (AVEFA; 80 g/ha) | Post-emergence effect against AVEFA (AVEFA; 320 g/ha) | Post-emergence effect against DIGSA (DIGSA; 320 g/ha) | Post-emergence effect against ECHCG (ECHCG; [1]) | Post-emergence effect against ECHCG in % (ECHCG; 80 g/ha) | Post-emergence effect against ECHCG in % (ECHCG; 320 g/ha) | Post-emergence effect against LOLRI in % (LOLRI; 320 g/ha) | pest or weed control at 80 g/ha (LOLRI; [3]) | Post-emergence effect against PHBPU in % (PHBPU; 80 g/ha) | Post-emergence effect against PHBPU in % (PHBPU; 320 g/ha) | Post-emergence effect against POLCO in % (POLCO; 80 g/ha) | Post-emergence effect against POLCO in % (POLCO; 320 g/ha) | Post-emergence effect against SETVI in % (SETVI; 80 g/ha) | Post-emergence effect against SETVI in % (SETVI; 320 g/ha) | Post-emergence effect against VERPE in % (VERPE; 80 g/ha) | Post-emergence effect against VERPE in % (VERPE; 320 g/ha) | Post-emergence effect against VIOTR in % (VIOTR; 80 g/ha) | Post-emergence effect against VIOTR in % (VIOTR; 320 g/ha) | Post-emergence effect against KCHSC in % (KCHSC; 80 g/ha) | Post-emergence effect against KCHSC in % (KCHSC; 320 g/ha) | pest or weed control at 20 g/ha (KCHSC; [6])
80%: Post-emergence effect against ABUTH (ABUTH; 80 g/ha) | Post-emergence effect against ABUTH (ABUTH; 320 g/ha) | Post-emergence effect against AMARE (AMARE; 320 g/ha) | pest or weed control at 80 g/ha (AMARE; [2]) | pest or weed control at 80 g/ha (DIGSA; Digitaria sanguinalis, 504 h, 80 g/ha, read-out: Post-emergence effect against DIGSA) | Post-emergence effect against MATIN in % (MATIN; 80 g/ha) | Post-emergence effect against MATIN in % (MATIN; 320 g/ha) | pest or weed control at 20 g/ha (PHBPU; [4]) | pest or weed control at 20 g/ha (SETVI; [5])
